PubChem BioAssay (NCI)
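Each compound was tested at five concentrations against cells in 96-well plates for 48 hours. TGI denotes the concentration required for complete inhibition of growth.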

How the values were obtained:
Assay in all cases: NCI-60 cell line screen, 48 h
[1] = test system: 786-0 renal
[2] = test system: A498 renal
[3] = test system: A549 NSCLC
[4] = test system: ACHN renal
[5] = test system: BT-549 breast
[6] = test system: CAKI-1 renal
[7] = test system: CCRF-CEM leukemia
[8] = test system: COLO 205 colon
[9] = test system: DU-145 prostate
[10] = test system: EKVX NSCLC
[11] = test system: HCC-2998 colon
[12] = test system: HCT-116 colon
[13] = test system: HCT-15 colon
[14] = test system: HL-60(TB) leukemia
[15] = test system: HOP-62 NSCLC
[16] = test system: HOP-92 NSCLC
[17] = test system: HS 578T breast
[18] = test system: HT29 colon
[19] = test system: IGROV1 ovarian
[20] = test system: K-562 leukemia
[21] = test system: KM12 colon
[22] = test system: LOX IMVI melanoma
[23] = test system: M14 melanoma
[24] = test system: MALME-3M melanoma
[25] = test system: MCF7 breast
[26] = test system: MDA-MB-231 breast
[27] = test system: MDA-MB-435
[28] = test system: MDA-N
[29] = test system: MOLT-4 leukemia
[30] = test system: NCI-H226 lung
[31] = test system: NCI-H23 lung
[32] = test system: NCI-H460 lung
[33] = test system: NCI-H522 lung
[34] = test system: NCI/ADR-RES ovarian
[35] = test system: OVCAR-3 ovarian
[36] = test system: OVCAR-4 ovarian
[37] = test system: OVCAR-5 ovarian
[38] = test system: OVCAR-8 ovarian
[39] = test system: PC-3 prostate
[40] = test system: RPMI-8226 leukemia
[41] = test system: RXF 393 renal
[42] = test system: SF-268 CNS
[43] = test system: SF-295 CNS
[44] = test system: SF-539 CNS
[45] = test system: SK-MEL-2 melanoma
[46] = test system: SK-MEL-28 melanoma
[47] = test system: SK-MEL-5 melanoma
[48] = test system: SK-OV-3 ovarian
[49] = test system: SN12C renal
[50] = test system: SNB-19 CNS
[51] = test system: SNB-75 CNS
[52] = test system: SR leukemia
[53] = test system: SW-620 colon
[54] = test system: T-47D breast
[55] = test system: TK-10 renal
[56] = test system: U251 CNS
[57] = test system: UACC-257 melanoma
[58] = test system: UACC-62 melanoma
[59] = test system: UO-31 renal

Compound: CCOC(=O)/C=C(\C(=O)OCC)n1ccc(=O)n(Cc2cn(COCCOC(C)=O)nn2)c1=O
- TGI [1]: 32.9 µM
- TGI [2]: > 69.5 µM
- TGI [3]: > 100 µM
- TGI [4]: 17.3 µM
- TGI [5]: 33.2 µM
- TGI [6]: 21.2 µM
- TGI [7]: 11.9 µM
- TGI [8]: 24.2 µM
- TGI [9]: > 100 µM
- TGI [10]: 38.9 µM
- TGI [11]: 30.2 µM
- TGI [12]: 33 µM
- TGI [13]: 38 µM
- TGI [14]: 41.3 µM
- TGI [15]: > 100 µM
- TGI [16]: 35.3 µM
- TGI [17]: 63.6 µM
- TGI [18]: 30.8 µM
- TGI [19]: 44.3 µM
- TGI [20]: > 100 µM
- TGI [21]: > 54.6 µM
- TGI [22]: 34.9 µM
- TGI [23]: > 100 µM
- TGI [24]: 30.6 µM
- TGI [25]: 35.1 µM
- TGI [26]: 41.1 µM
- TGI [27]: 37 µM
- TGI [28]: > 100 µM
- TGI [29]: 39.3 µM
- TGI [30]: 29.7 µM
- TGI [31]: 32.6 µM
- TGI [32]: > 52.5 µM
- TGI [33]: 8.34 µM
- TGI [34]: 52.8 µM
- TGI [35]: 48 µM
- TGI [36]: 38.3 µM
- TGI [37]: 55.2 µM
- TGI [38]: 31.1 µM
- TGI [39]: 41.5 µM
- TGI [40]: 55.6 µM
- TGI [41]: 38.4 µM
- TGI [42]: > 57.6 µM
- TGI [43]: > 100 µM
- TGI [44]: 38.9 µM
- TGI [45]: 47.7 µM
- TGI [46]: 41 µM
- TGI [47]: 47.1 µM
- TGI [48]: > 100 µM
- TGI [49]: 41.8 µM
- TGI [50]: > 89.5 µM
- TGI [51]: > 69.4 µM
- TGI [52]: 52.9 µM
- TGI [53]: 31.4 µM
- TGI [54]: 55.8 µM
- TGI [55]: 29.2 µM
- TGI [56]: 36.7 µM
- TGI [57]: 47.2 µM
- TGI [58]: 38.6 µM
- TGI [59]: 34.1 µM

Compound: NC(=O)N/N=C1\CC2C3CC4C2C4C13 (stereo unspecified)
- TGI [1]: > 100 µM
- TGI [2]: > 100 µM
- TGI [3]: > 100 µM
- TGI [4]: > 100 µM
- TGI [5]: > 100 µM
- TGI [6]: > 100 µM
- TGI [7]: > 100 µM
- TGI [8]: > 100 µM
- TGI [9]: > 100 µM
- TGI [10]: > 100 µM
- TGI [11]: > 100 µM
- TGI [12]: > 100 µM
- TGI [13]: > 100 µM
- TGI [14]: > 100 µM
- TGI [15]: > 100 µM
- TGI [16]: > 100 µM
- TGI [17]: > 100 µM
- TGI [18]: > 100 µM
- TGI [19]: > 100 µM
- TGI [20]: > 100 µM
- TGI [21]: > 100 µM
- TGI [22]: > 100 µM
- TGI [23]: > 100 µM
- TGI [24]: > 100 µM
- TGI [25]: > 100 µM
- TGI [26]: > 100 µM
- TGI [27]: > 100 µM
- TGI [28]: > 100 µM
- TGI [29]: > 100 µM
- TGI [30]: > 100 µM
- TGI [31]: > 100 µM
- TGI [32]: > 100 µM
- TGI [33]: > 100 µM
- TGI [34]: > 100 µM
- TGI [35]: > 100 µM
- TGI [36]: > 100 µM
- TGI [37]: > 100 µM
- TGI [38]: > 100 µM
- TGI [39]: > 100 µM
- TGI [40]: > 100 µM
- TGI [42]: > 100 µM
- TGI [43]: > 100 µM
- TGI [44]: > 100 µM
- TGI [45]: > 100 µM
- TGI [46]: > 100 µM
- TGI [47]: > 100 µM
- TGI [48]: > 100 µM
- TGI [49]: > 100 µM
- TGI [50]: > 100 µM
- TGI [51]: > 100 µM
- TGI [52]: > 100 µM
- TGI [53]: > 100 µM
- TGI [54]: > 100 µM
- TGI [55]: > 100 µM
- TGI [56]: > 100 µM
- TGI [57]: > 100 µM
- TGI [58]: > 100 µM
- TGI [59]: > 100 µM

Compound: O=C(C(Cl)=C(N1CCOCC1)N1CCOCC1)C(Cl)Cl
- TGI [1]: > 100 µM
- TGI [2]: > 100 µM
- TGI [3]: > 100 µM
- TGI [4]: > 100 µM
- TGI [5]: > 100 µM
- TGI [6]: > 100 µM
- TGI [7]: > 100 µM
- TGI [8]: > 100 µM
- TGI [9]: > 100 µM
- TGI [10]: > 100 µM
- TGI [11]: > 100 µM
- TGI [12]: > 100 µM
- TGI [13]: > 100 µM
- TGI [14]: > 100 µM
- TGI [15]: > 100 µM
- TGI [16]: > 100 µM
- TGI [17]: > 100 µM
- TGI [18]: > 100 µM
- TGI [19]: > 100 µM
- TGI [20]: > 100 µM
- TGI [21]: > 100 µM
- TGI [22]: > 100 µM
- TGI [23]: > 100 µM
- TGI [24]: > 100 µM
- TGI [25]: > 100 µM
- TGI [26]: > 100 µM
- TGI [27]: > 100 µM
- TGI [28]: > 100 µM
- TGI [29]: > 100 µM
- TGI [30]: > 100 µM
- TGI [31]: > 100 µM
- TGI [32]: > 100 µM
- TGI [33]: > 100 µM
- TGI [34]: > 100 µM
- TGI [35]: > 100 µM
- TGI [36]: > 100 µM
- TGI [38]: > 100 µM
- TGI [39]: > 100 µM
- TGI [40]: > 100 µM
- TGI [41]: > 100 µM
- TGI [42]: > 100 µM
- TGI [44]: > 100 µM
- TGI [46]: > 100 µM
- TGI [47]: > 100 µM
- TGI [48]: > 100 µM
- TGI [49]: > 100 µM
- TGI [50]: > 100 µM
- TGI [52]: > 100 µM
- TGI [53]: > 100 µM
- TGI [54]: > 100 µM
- TGI [55]: > 100 µM
- TGI [57]: > 100 µM
- TGI [58]: > 100 µM
- TGI [59]: > 100 µM

Compound: COc1ccc(-c2cc(-c3ccccc3)[nH]c(=S)c2C#N)cc1
- TGI [1]: 86.3 µM
- TGI [2]: 60.2 µM
- TGI [3]: 37.9 µM
- TGI [4]: > 100 µM
- TGI [5]: > 100 µM
- TGI [6]: > 100 µM
- TGI [7]: > 100 µM
- TGI [9]: > 100 µM
- TGI [10]: > 100 µM
- TGI [11]: > 100 µM
- TGI [12]: > 100 µM
- TGI [13]: > 100 µM
- TGI [14]: > 100 µM
- TGI [15]: 24.2 µM
- TGI [16]: 98.3 µM
- TGI [17]: > 100 µM
- TGI [18]: > 100 µM
- TGI [19]: > 100 µM
- TGI [20]: > 100 µM
- TGI [21]: > 100 µM
- TGI [22]: > 100 µM
- TGI [23]: 94 µM
- TGI [24]: > 100 µM
- TGI [25]: > 100 µM
- TGI [26]: > 100 µM
- TGI [27]: 42.8 µM
- TGI [28]: > 100 µM
- TGI [29]: > 100 µM
- TGI [30]: 96.2 µM
- TGI [31]: 52.3 µM
- TGI [32]: 81.7 µM
- TGI [33]: > 100 µM
- TGI [34]: > 100 µM
- TGI [35]: 38.3 µM
- TGI [36]: > 100 µM
- TGI [37]: > 100 µM
- TGI [38]: 90.5 µM
- TGI [39]: > 100 µM
- TGI [40]: 51.7 µM
- TGI [41]: > 100 µM
- TGI [42]: > 100 µM
- TGI [43]: > 100 µM
- TGI [46]: 58.7 µM
- TGI [47]: 34.3 µM
- TGI [48]: 93.6 µM
- TGI [49]: > 100 µM
- TGI [50]: > 100 µM
- TGI [51]: 88.1 µM
- TGI [52]: > 100 µM
- TGI [53]: > 100 µM
- TGI [54]: 94.3 µM
- TGI [55]: > 100 µM
- TGI [56]: 54.4 µM
- TGI [58]: 46.2 µM
- TGI [59]: 45.7 µM
